Laboratory results published in patent US20140213648A1, “METHODS OF INCREASING EPA BLOOD LEVELS” (priority 2012, published 2014).

Experiment: 12-week placebo-controlled study: red blood cell fatty acid concentrations, ratios and proportions (GC/FID)
Assay type: in vivo, human
Conditions: for AA red blood cell concentration, change from baseline (LS mean (SE)) / AA red blood cell concentration, end-of-treatment (mean) / DHA red blood cell concentration, change from baseline (LS mean (SE)) / DHA red blood cell concentration, end-of-treatment (mean) / Linoleic red blood cell concentration, change from baseline (LS mean (SE)) / Linoleic red blood cell concentration, end-of-treatment (mean) / Oleic red blood cell concentration, change from baseline (LS mean (SE)) / Oleic red blood cell concentration, end-of-treatment (mean) / Palmitic red blood cell concentration, change from baseline (LS mean (SE)) / Palmitic red blood cell concentration, end-of-treatment (mean) / Proportion of monounsaturated fatty acids to total fatty acids in RBCs, change from baseline (LS mean (SE)) / Proportion of monounsaturated fatty acids to total fatty acids in RBCs, end-of-treatment (mean (SD)) / Proportion of saturated fatty acids to total fatty acids in RBCs, change from baseline (LS mean (SE)) / Proportion of saturated fatty acids to total fatty acids in RBCs, end-of-treatment (mean (SD)) / Proportion of total omega-3 fatty acids to total fatty acids in RBCs, change from baseline (LS mean (SE)) / Proportion of total omega-3 fatty acids to total fatty acids in RBCs, end-of-treatment (mean (SD)) / Proportion of total omega-6 fatty acids to total fatty acids in RBCs, change from baseline (LS mean (SE)) / Proportion of total omega-6 fatty acids to total fatty acids in RBCs, end-of-treatment (mean (SD)) / Ratio of AA/EPA in red blood cells, change from baseline (LS mean (SE)) / Ratio of AA/EPA in red blood cells, end-of-treatment (mean) / Ratio of n-3/n-6 FA in red blood cells, change from baseline (LS mean (SE)) / Ratio of n-3/n-6 FA in red blood cells, end-of-treatment (mean) / Stearic red blood cell concentration, change from baseline (LS mean (SE)) / Stearic red blood cell concentration, end-of-treatment (mean): week 12
Experimental: A multi-center, placebo-controlled randomized, double-blind, 12-week study with an open-label extension is performed to evaluate the efficacy and safety of AMR101 in patients with fasting triglyceride levels ≧500 mg/dL. The primary objective of the study is to determine the efficacy of AMR101 2 g daily and 4 g daily, compared to placebo, in lowering fasting TG levels in patients with fasting TG levels ≧500 mg/dL and ≦1500 mg/dL (≧5.65 mmol/L and ≦16.94 mmol/L).
Eligible patients will be randomly assigned at Visit 4 (Week 0) to receive orally AMR101 2 g daily, AMR101 4 g daily, or placebo for the 12-week double-blind treatment period. AMR101 is provided in 1 g liquid-filled, oblong, gelatin capsules. The matching placebo capsule is filled with light liquid paraffin and contains 0 g of AMR101. During the double-blind treatment period, patients will take 2 capsules (AMR101 or matching placebo) in the morning and 2 in the evening for a total of 4 capsules per day. Patients in the AMR101 2 g/day treatment group will receive 1 AMR101 1 g capsule and 1 matching placebo capsule in the morning and in the evening. Patients in the AMR101 4 g/day treatment group will receive 2 AMR101 1 g capsules in the morning and evening.
Lipids were extracted from plasma and RBC suspensions and converted into fatty acid methyl esters for analysis using a standard validated gas chromatography/flame ionization detection method. Fatty acid parameters were compared between EPA treatment groups and placebo using an ANCOVA model with treatment, gender, type of statin therapy, and presence of diabetes as factors, and the baseline parameter value as a covariate. LSMs, SEs, and 2-tailed 95% confidence intervals for each treatment group and for each comparison were determined.

[1] = 2 g/day vs placebo, week 12, P <0.0001
[2] = 4 g/day vs placebo, week 12, P <0.0001

SMILES: CC/C=C\C/C=C\C/C=C\C/C=C\C/C=C\CCCC(=O)OCC [IPE, Icosapent ethyl]
- Dose dependence of EPA concentration in RBCs (in words) (2 g/day or 4 g/day, 12 weeks): significantly increased EPA concentrations in a linear, dose-dependent fashion
- AA red blood cell concentration, mean placebo-adjusted percent change from baseline (2 g/day vs placebo, week 12, P 0.0008): −8.0%
- Proportion of total omega-6 fatty acids to total fatty acids in RBCs, mean placebo-adjusted percent change from baseline (2 g/day vs placebo, week 12, P 0.0014): −13.2%
- Proportion of monounsaturated fatty acids to total fatty acids in RBCs, mean placebo-adjusted percent change from baseline (2 g/day vs placebo, week 12, P 0.0435): −3.1%
- Proportion of total omega-3 fatty acids to total fatty acids in RBCs, mean placebo-adjusted percent change from baseline (2 g/day vs placebo, week 12, P 0.1183): 23.8%
- Linoleic red blood cell concentration, mean placebo-adjusted percent change from baseline (2 g/day vs placebo, week 12, P 0.1278): −4.7%
- Proportion of saturated fatty acids to total fatty acids in RBCs, mean placebo-adjusted percent change from baseline (2 g/day vs placebo, week 12, P 0.3278): 1.1%
- Oleic red blood cell concentration, mean placebo-adjusted percent change from baseline (2 g/day vs placebo, week 12, P 0.3736): −2.1%
- DHA red blood cell concentration, mean placebo-adjusted percent change from baseline (2 g/day vs placebo, week 12, P 0.5859): −1.8%
- Stearic red blood cell concentration, mean placebo-adjusted percent change from baseline (2 g/day vs placebo, week 12, P 0.5886): 1.1%
- Palmitic red blood cell concentration, mean placebo-adjusted percent change from baseline (2 g/day vs placebo, week 12, P 0.9465): −0.1%
- Ratio of AA/EPA in red blood cells, mean placebo-adjusted percent change from baseline [1]: −91.1%
- Ratio of n-3/n-6 FA in red blood cells, mean placebo-adjusted percent change from baseline [1]: 65.5%
- AA red blood cell concentration, change from baseline (LS mean (SE)) (2 g/day): −20.9 (3.2)
- AA red blood cell concentration, end-of-treatment (mean) (2 g/day): 160.3
- DHA red blood cell concentration, change from baseline (LS mean (SE)) (2 g/day): −7.3 (1.5)
- DHA red blood cell concentration, end-of-treatment (mean) (2 g/day): 51.5
- Linoleic red blood cell concentration, change from baseline (LS mean (SE)) (2 g/day): −10.7 (4.7)
- Linoleic red blood cell concentration, end-of-treatment (mean) (2 g/day): 169.6
- Oleic red blood cell concentration, change from baseline (LS mean (SE)) (2 g/day): −1.4 (4.1)
- Oleic red blood cell concentration, end-of-treatment (mean) (2 g/day): 213.0
- Palmitic red blood cell concentration, change from baseline (LS mean (SE)) (2 g/day): −2.9 (5.4)
- Palmitic red blood cell concentration, end-of-treatment (mean) (2 g/day): 341.7
- Proportion of monounsaturated fatty acids to total fatty acids in RBCs, change from baseline (LS mean (SE)) (2 g/day): −0.1 (0.3) mol %
- Proportion of monounsaturated fatty acids to total fatty acids in RBCs, end-of-treatment (mean (SD)) (2 g/day): 20.0 (1.9) mol %
- Proportion of saturated fatty acids to total fatty acids in RBCs, change from baseline (LS mean (SE)) (2 g/day): 0.3 (0.4) mol %
- Proportion of saturated fatty acids to total fatty acids in RBCs, end-of-treatment (mean (SD)) (2 g/day): 44.4 (3.0) mol %
- Proportion of total omega-3 fatty acids to total fatty acids in RBCs, change from baseline (LS mean (SE)) (2 g/day): 2.6 (0.3) mol %
- Proportion of total omega-3 fatty acids to total fatty acids in RBCs, end-of-treatment (mean (SD)) (2 g/day): 8.7 (2.2) mol %
- Proportion of total omega-6 fatty acids to total fatty acids in RBCs, change from baseline (LS mean (SE)) (2 g/day): −2.9 (0.4) mol %
- Proportion of total omega-6 fatty acids to total fatty acids in RBCs, end-of-treatment (mean (SD)) (2 g/day): 27.0 (3.3) mol %
- Ratio of AA/EPA in red blood cells, change from baseline (LS mean (SE)) (2 g/day): −17.7 (0.9)
- Ratio of AA/EPA in red blood cells, end-of-treatment (mean) (2 g/day): 5.2
- Ratio of n-3/n-6 FA in red blood cells, change from baseline (LS mean (SE)) (2 g/day): 0.12 (0.010)
- Ratio of n-3/n-6 FA in red blood cells, end-of-treatment (mean) (2 g/day): 0.33
- Stearic red blood cell concentration, change from baseline (LS mean (SE)) (2 g/day): −4.7 (2.9)
- Stearic red blood cell concentration, end-of-treatment (mean) (2 g/day): 179.0
- Proportion of total omega-3 fatty acids to total fatty acids in RBCs, mean placebo-adjusted percent change from baseline (4 g/day vs placebo, week 12, P 0.0008): 53.4%
- Proportion of monounsaturated fatty acids to total fatty acids in RBCs, mean placebo-adjusted percent change from baseline (4 g/day vs placebo, week 12, P 0.0154): −3.9%
- Proportion of saturated fatty acids to total fatty acids in RBCs, mean placebo-adjusted percent change from baseline (4 g/day vs placebo, week 12, P 0.1145): 1.9%
- DHA red blood cell concentration, mean placebo-adjusted percent change from baseline (4 g/day vs placebo, week 12, P 0.1216): −5.2%
- Oleic red blood cell concentration, mean placebo-adjusted percent change from baseline (4 g/day vs placebo, week 12, P 0.1325): −3.7%
- Palmitic red blood cell concentration, mean placebo-adjusted percent change from baseline (4 g/day vs placebo, week 12, P 0.7427): −0.7%
- Stearic red blood cell concentration, mean placebo-adjusted percent change from baseline (4 g/day vs placebo, week 12, P 0.7565): −0.7%
- AA red blood cell concentration, mean placebo-adjusted percent change from baseline [2]: −15.7%
- Linoleic red blood cell concentration, mean placebo-adjusted percent change from baseline [2]: −13.0%
- Proportion of total omega-6 fatty acids to total fatty acids in RBCs, mean placebo-adjusted percent change from baseline [2]: −17.3%
- Ratio of AA/EPA in red blood cells, mean placebo-adjusted percent change from baseline [2]: −102%
- Ratio of n-3/n-6 FA in red blood cells, mean placebo-adjusted percent change from baseline [2]: 106.9%
- AA red blood cell concentration, change from baseline (LS mean (SE)) (4 g/day): −36.2 (3.4)
- AA red blood cell concentration, end-of-treatment (mean) (4 g/day): 148.8
- DHA red blood cell concentration, change from baseline (LS mean (SE)) (4 g/day): −9.7 (1.6)
- DHA red blood cell concentration, end-of-treatment (mean) (4 g/day): 51.7
- Linoleic red blood cell concentration, change from baseline (LS mean (SE)) (4 g/day): −25.0 (4.9)
- Linoleic red blood cell concentration, end-of-treatment (mean) (4 g/day): 164.7
- Oleic red blood cell concentration, change from baseline (LS mean (SE)) (4 g/day): −5.6 (4.1)
- Oleic red blood cell concentration, end-of-treatment (mean) (4 g/day): 208.3
- Palmitic red blood cell concentration, change from baseline (LS mean (SE)) (4 g/day): −5.8 (5.7)
- Palmitic red blood cell concentration, end-of-treatment (mean) (4 g/day): 340.6
- Proportion of monounsaturated fatty acids to total fatty acids in RBCs, change from baseline (LS mean (SE)) (4 g/day): −0.2 (0.3) mol %
- Proportion of monounsaturated fatty acids to total fatty acids in RBCs, end-of-treatment (mean (SD)) (4 g/day): 19.5 (1.9) mol %
- Proportion of saturated fatty acids to total fatty acids in RBCs, change from baseline (LS mean (SE)) (4 g/day): 0.6 (0.4) mol %
- Proportion of saturated fatty acids to total fatty acids in RBCs, end-of-treatment (mean (SD)) (4 g/day): 44.5 (2.5) mol %
- Proportion of total omega-3 fatty acids to total fatty acids in RBCs, change from baseline (LS mean (SE)) (4 g/day): 4.1 (0.3) mol %
- Proportion of total omega-3 fatty acids to total fatty acids in RBCs, end-of-treatment (mean (SD)) (4 g/day): 10.4 (2.3) mol %
- Proportion of total omega-6 fatty acids to total fatty acids in RBCs, change from baseline (LS mean (SE)) (4 g/day): −4.7 (0.5) mol %
- Proportion of total omega-6 fatty acids to total fatty acids in RBCs, end-of-treatment (mean (SD)) (4 g/day): 25.5 (2.9) mol %
- Ratio of AA/EPA in red blood cells, change from baseline (LS mean (SE)) (4 g/day): −19.9 (1.0)
- Ratio of AA/EPA in red blood cells, end-of-treatment (mean) (4 g/day): 3.1
- Ratio of n-3/n-6 FA in red blood cells, change from baseline (LS mean (SE)) (4 g/day): 0.20 (0.011)
- Ratio of n-3/n-6 FA in red blood cells, end-of-treatment (mean) (4 g/day): 0.42
- Stearic red blood cell concentration, change from baseline (LS mean (SE)) (4 g/day): −8.2 (3.1)
- Stearic red blood cell concentration, end-of-treatment (mean) (4 g/day): 178.1
